Data from patent US20070043034A1, “Chlorine Ion Uptake Modulators and Uses Thereof” (priority 2005, published 2007).

Experiments:
[1] = tested on: KA-induced rat seizures; experiment: Kainic acid (KA) induced seizures in rat pups, EEG recording in vivo; details: KA 2 mg/kg s.c.
From the text: Kainic Acid (KA) is a commonly used agent for creating an in vivo neonatal-like seizure model in rats for study. It is believed that this seizure model closely parallels human neonatal seizure disorders. KA, a glutamate receptor agonist, was used to induce neonatal-like seizures in postnatal (P) 7-12 day male Wistar rats. The rats were equipped with electrodes including recording and reference electrodes by standard means. There are many known methods for measuring parameters of seizures, in this example electrical signals were digitized using an analogue-to-digital converter for example a DigiData 1322A (Axon Instuments USA). The sampling interval can vary depending on the desired target interval. In this example, the sampling interval per signal was 200 […]s (5 kHz). For data analysis, several computer programs exist for capturing and analyzing these seizure parameters such as Clamp 9.2 (Axon Instruments, USA) and Origon 5.0 (Microcal Software, USA) used here. Interictal spikes were determined by typical means utilizing band-pass filtered raw data.
Many known methods exist for analyzing the power levels of different frequency components in a signal such as a signal recorded from a seizure episode. For example, power spectrum analysis can be performed after applying a Hamming window function. Unless otherwise indicated, power was calculated in 1-2 min time windows by integrating the root mean square value of the signal in frequency bands from 1 to 100 Hz (EEC band) and from 200 to 500 Hz (fast ripple band).
Pharmaceutical compositions of the present invention can be administered to seizure-induced rats to test the seizure modulatory properties of the pharmaceutical composition. In one exemplary method, the inhibition of NKCCl and its affect on seizures in rat pups was studied. Two days after implantation of recording electrodes, six P9-P10 rats received subcutaneous injection of KA (2 mg/kg) and six P9-10 control rats received subcutaneous 0.9% sodium chloride saline injections. 10-20 minutes after KA injection regular pattern of behavioral signs started, involving scratching-like movements of the hindpaws, loss of balance and turning on the side. Recurrent interictal and ictal electroencephalographic patterns occurred 20-80 minutes (61.2±10.4 min; mean±se) after KA injection in all rats from this experimental group (FIG. 4B). […] Interictal spikes usually occurred synchronously in the left and right hemispheres. Frequency of the interictal spikes was 1.43±0.06 Hz (n=23 seizures in 6 rats). Before transition to ictal patterns, interictal spikes were usually followed by fast ripple (100-500 Hz) and gamma-frequency oscillations (20-50 Hz). Tonic-clonic seizures were the most common type of seizures induced by KA in P9-10 rats. Ictal-tonic phase lasted 12.6±1.4 s (16 seizures in 5 rats). Population spikes of 18.7±1.2 Hz were characteristic of the tonic phase of KA-induced seizures (FIG. 4C). Tonic discharges were followed by clonic bursts (FIG. 4C). Large amplitude population spikes followed by 100-200 Hz ripples and 200-1200 ms gamma frequency after discharges characterized the clonic bursts. The mean duration of the clonic phase was 36.4±5 s (25 seizures in 6 rats). The ictal patterns were followed by postictal depression (FIG. 4 B-4C). During ictal EEG activity, motor activity consisted of scratching, jerky movements, turning on the side or on the back and frequent tail shaking. Five to ten recurrent seizures with an average interval 379±24.5 s were followed by periodic epileptiform discharges (PLEDs) (FIG. 4D).
In one exemplary experiment, a pharmaceutical composition of the present invention comprising bumetanide was compared to phenobarbital for effects on KA-induced rat seizures. Two days after implantation of recording electrodes, twenty-two P9-12 age-matched rats received subcutaneous injection with KA (2 mg/kg). […]

[2] = target: T1, NKCCl (Rattus norvegicus, UniProt E9PTX9); experiment: Gramicidin perforated patch recording of ECl and Cli in CA1 pyramidal cells of acute hippocampal slices; type: cell-based; details: 10 μM bumetanide
T1 construct: gramicidin perforated patch clamped CA1 pyramidal neuron in an acute hippocampal slice from a P5 rat; from tissue; host or cells: acute hippocampal slices of P3-P6 male Sprague-Dawley rats; CA1 pyramidal neurons
T1 sequence (E9PTX9 1-1203): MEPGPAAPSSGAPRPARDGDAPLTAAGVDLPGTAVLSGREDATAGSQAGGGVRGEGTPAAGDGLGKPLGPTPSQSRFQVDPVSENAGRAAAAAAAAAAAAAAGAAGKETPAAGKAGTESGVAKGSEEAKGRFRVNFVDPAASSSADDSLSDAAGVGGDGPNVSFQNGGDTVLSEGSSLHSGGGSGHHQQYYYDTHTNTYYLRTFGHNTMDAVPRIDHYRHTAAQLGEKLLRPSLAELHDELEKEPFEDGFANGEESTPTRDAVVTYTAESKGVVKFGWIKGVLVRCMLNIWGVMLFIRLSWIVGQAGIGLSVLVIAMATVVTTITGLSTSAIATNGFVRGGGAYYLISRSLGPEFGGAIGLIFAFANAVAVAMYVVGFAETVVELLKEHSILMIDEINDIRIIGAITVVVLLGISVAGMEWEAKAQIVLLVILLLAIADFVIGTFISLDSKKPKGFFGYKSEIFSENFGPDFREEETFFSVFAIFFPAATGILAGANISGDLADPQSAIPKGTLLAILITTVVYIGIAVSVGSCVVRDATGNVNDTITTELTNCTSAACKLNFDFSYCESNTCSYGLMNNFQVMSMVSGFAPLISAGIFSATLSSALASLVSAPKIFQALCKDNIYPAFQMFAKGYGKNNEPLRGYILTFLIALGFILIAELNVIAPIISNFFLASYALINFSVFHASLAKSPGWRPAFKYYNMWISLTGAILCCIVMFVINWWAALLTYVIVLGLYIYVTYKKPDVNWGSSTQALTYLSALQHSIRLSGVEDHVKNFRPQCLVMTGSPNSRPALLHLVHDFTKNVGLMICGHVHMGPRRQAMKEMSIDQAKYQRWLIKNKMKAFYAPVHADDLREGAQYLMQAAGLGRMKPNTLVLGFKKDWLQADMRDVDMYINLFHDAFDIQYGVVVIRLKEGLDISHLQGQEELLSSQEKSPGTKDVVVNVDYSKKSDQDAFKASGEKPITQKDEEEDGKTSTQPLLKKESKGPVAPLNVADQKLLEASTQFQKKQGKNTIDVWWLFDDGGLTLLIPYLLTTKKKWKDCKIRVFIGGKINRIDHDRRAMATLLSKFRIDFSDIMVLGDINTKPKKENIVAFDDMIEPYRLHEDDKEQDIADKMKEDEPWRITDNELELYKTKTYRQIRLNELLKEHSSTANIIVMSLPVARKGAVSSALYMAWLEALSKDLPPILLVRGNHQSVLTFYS

[3] = P9-12 rats, phenobarbital 25 mg/kg or bumetanide 0.1-0.2 mg/kg i.p.

CCCCNc1cc(C(=O)O)cc(S(N)(=O)=O)c1Oc1ccccc1 [bumetanide, 3-(aminosulfonyl)-5-(butylamino)-4-phenoxybenzoic acid]
periodic epileptiform discharges ([1]; bumetanide 0.1-0.2 mg/kg i.p.): occurred in all six rats
animals with recurrent ictal-clonic activity / EEG clonic seizures ([1]; P9-12 rats, drug i.p. 10 min after KA (phenobarbital 25 mg/kg; bumetanide 0.1-0.2 mg/kg), 6 rats per group): 50%
duration of ictal-clonic phase [1, 3]: 12.5 ± 1.1 s
duration of ictal-tonic phase [1, 3]: 9 ± 1.9 s
frequency of interictal spikes [1, 3]: 1.42 ± 0.07 Hz
mean duration of single ictal episode (seizure including interictal and ictal phases) [1, 3]: 32 ± 3.9 s
mean interval between seizures [1, 3]: 360.1 ± 68.6 s
rats with ictal-tonic pattern / tonic-clonic seizures [1, 3]: 16.7%
increase of power of EEG activity in the 20 minute window following seizure onset ([1]; compared to pre-ictal baseline, phenobarbital 25 mg/kg or bumetanide 0.1-0.2 mg/kg i.p., saline control 444.7±136.3%): 88.7±24.5%
holding current [2]: no change
ECl ([2]; P4-6 CA1 pyramidal cells, n=9, control −67.34±3.78 mV): −80.14±4.61 mV
lowering of Cli ([2]; n=9, P=0.0006): 37±0.05%
Cli ([2]; n=9, control 12.00±1.47 mM): 7.62 ± 1.14 mM
